Reference: publication PMC4791960 (European journal of medicinal chemistry, 2011)

What was measured:
[1] = biological target: α7 nAChR (Rattus norvegicus, UniProt Q05941); assay: [3H]-methyllycaconitine competition binding on rat hippocampal membranes; details: for Ki: read-out: α7 Ki, [3H]-methyllycaconitine, rat hippocampal membranes; for interaction with α7 nAChR: in words
[2] = biological target: α4β2 nAChR (Rattus norvegicus, UniProt P09483+P12390); assay: [3H]-epibatidine competition binding on rat cortical membranes; details: tested at 5 μM, ± standard error
[3] = biological target: α3β4 ganglion-type nicotinic receptors (Homo sapiens, UniProt P30926+P32297); assay: [3H]-epibatidine competition binding on SH-SY5Y cellular membranes
[4] = biological target: α1βγδ muscle-type nicotinic receptors (Homo sapiens, UniProt P02708+P07510+Q07001); assay: [3H]-epibatidine competition binding on TE-671 cellular membranes; details: tested at 5 μM, ± standard error
[5] = test system: AChBP from Ac; assay: Dissociation constants with AChBP from Aplysia californica; assay type: binding; details: compound 2 vs compound 3 (OH to OCH3)
[6] = test system: AChBP from Bt; assay: Dissociation constants with AChBP from Bulinus truncatus; assay type: binding; details: compound 2 vs compound 3 (OH to OCH3)
[7] = biological target: rat α7 nAChR (Rattus norvegicus, UniProt Q05941); assay: Patch-clamp electrophysiology in rat α7 nAChR; assay type: cell-based

Compound	Ki [1]	α4β2 percent inhibition of control radioligand binding [2]	interaction with α7 nAChR [1]	other results
5-(2-Furyl)spiro[1,3-dihydro-1,4-diazepine-2,3′-quinuclidine]-7-ol [Compound 2g]	150 nM	14 ± 3%		
5-(2-Methoxyphenyl)spiro[1,3-dihydro-1,4-diazepine-2,3′-quinuclidine]-7-ol [Compound 2b]	110 nM	7 ± 1%		
5-(4-Methoxyphenyl)spiro[1,3-dihydro-1,4-diazepine-2,3′-quinuclidine]-7-ol [Compound 2d]	42 nM	42 ± 14%		α3β4 percent inhibition of control radioligand binding ([3]; tested at 5 μM, [3H]-epibatidine, SH-SY5Y cellular membranes, ± standard error): 63 ± 0.4%; α1βγδ percent inhibition of control radioligand binding [4]: 38 ± 5%
5-Phenylspiro[1,3-dihydro-1,4-diazepine-2,3′-quinuclidine]-7-ol [Compound 2a]	140 nM	15 ± 1%		
COc1ccc(/C=C2\CCCN=C2c2cccnc2)c(OC)c1 [Compound 2, 3-(2,4-dimethoxybenzilidene)-anabaseine]				loss in affinity vs compound 3, Ac [5]: 110 fold; decrease in Kd value (affinity) vs compound 3, Bt [6]: 2.5 fold
C1=NCC2(CN3CCC2CC3)NC=C1c1ccccc1 (stereo not shown) [Compound 2h, 6-phenylspiro[1,3-dihydro-1,4-diazepine-2,3′-quinuclidine]]			do not demonstrate any interaction	
O=C1NCC2(CN3CCC2CC3)NC(=O)C1c1ccccc1 (stereo not shown) [Compound 2i, 6-Phenylspiro[1,4-diazepane-2,3′-quinuclidine]-5,7-dione]			do not demonstrate any interaction	
COc1cc(O)ccc1/C=C1\CCCN=C1c1cccnc1 [Compound 3, 2-Methoxy-4-OH benzylidene anabaseine, reference compound]				inhibition at 5 µM ([3]; read-out: α3β4 percent inhibition of control radioligand binding): 75 ± 1%
Oc1c(C2=NC3(CN2)CN2CCC3CC2)oc2ccccc12 (stereo not shown) [Compound 3a, 2-(3-Hydroxybenzofuran-2-yl)spiro[1,5-dihydroimidazole-4,3′-quinuclidine]]				EC50 [7]: 600 ± 500 nM; Emax [7]: 53 ± 4.4%
c1ccc(C2=NC3(CN2)CN2CCC3CC2)cc1 (stereo not shown) [Compound 3c]			do not demonstrate any interaction	
c1ccc2oc(C3=NC4(CN3)CN3CCC4CC3)cc2c1 (stereo not shown) [Compound 3e, 2-Spiro[1,5-dihydroimidazole-4,3′-quinuclidine]-2-ylbenzo [b]furan]			do not demonstrate any interaction	
